Data taken from ChEMBL document CHEMBL1201862, “PubChem BioAssay data set” (2004).
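Dose response: 5 concentrations. Exposure: 48 h. Format: 96-well plates. Endpoint: linear interpolation; highest concentration if not reached. Here, GI50 denotes the concentration required for 50% inhibition of growth.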 Calls of active or inactive are those of the source. No stated cut-off is given here; in the data, active = GI50 up to about 1.1 µM and inactive = higher. Where a SMILES comes first, the peptide text is derived from it. The star is where a group is joined. Boc = CC(C)(C)OC(=O)*

Legend:
Experiment in all cases: DTP human tumour cell line panel, 48 h
A549 = test system: A549
ACHN = test system: ACHN
M14 = test system: M14
MCF7 = test system: MCF7
MDA-MB-231 = test system: MDA-MB-231
MDA-N = test system: MDA-N
MOLT-4 = test system: MOLT-4
Malme-3M = test system: Malme-3M
SF-295 = test system: SF-295
SF-539 = test system: SF-539
T47D = test system: T47D
TK-10 = test system: TK-10
U-251 = test system: U-251
CCRF-CEM = test system: CCRF-CEM
HCT-15 = test system: HCT-15
NCI/ADR-RES = test system: NCI/ADR-RES
RPMI-8226 = test system: RPMI-8226
RXF 393 = test system: RXF 393
SK-MEL-28 = test system: SK-MEL-28
SW-620 = test system: SW-620

SMILES | GI50 (A549) | GI50 (ACHN) | GI50 (M14) | GI50 (MCF7) | GI50 (MDA-MB-231) | GI50 (MDA-N) | GI50 (MOLT-4) | GI50 (Malme-3M) | GI50 (SF-295) | GI50 (SF-539) | GI50 (T47D) | GI50 (TK-10) | GI50 (U-251) | GI50 (CCRF-CEM) | GI50 (HCT-15) | GI50 (NCI/ADR-RES) | GI50 (RPMI-8226) | GI50 (RXF 393) | GI50 (SK-MEL-28) | GI50 (SW-620)
OCC(O)C(O)C(C=NNc1ncnc2ccc(Br)cc12)=NNc1ncnc2ccc(Br)cc12 (stereo not drawn) | 6.3 µM (inactive) | 1.85 µM (inactive) | 3.48 µM (inactive) | 0.479 µM (active) | 1.26 µM (inactive) | 5.06 µM (inactive) | 0.282 µM (active) | 1.84 µM (inactive) | 4.74 µM (inactive) | 3.13 µM (inactive) | 0.413 µM (active) | 13.2 µM (inactive) | 1.28 µM (inactive) |  |  |  |  |  |  | 
N#Cc1c(N2CCCC2)ncn(-c2ccccc2)c1=O | > 100 µM (inactive) | > 100 µM (inactive) | > 100 µM (inactive) |  | > 100 µM (inactive) | > 100 µM (inactive) | > 100 µM (inactive) | > 100 µM (inactive) | > 100 µM (inactive) | > 100 µM (inactive) | > 100 µM (inactive) | > 100 µM (inactive) | > 100 µM (inactive) | > 100 µM (inactive) | > 100 µM | > 100 µM (inactive) | > 100 µM (inactive) | > 100 µM (inactive) | > 100 µM (inactive) | > 100 µM (inactive)
CCOC(=O)CCN1C(=O)C(=O)N(c2ccc(OC)cc2)C1=S | > 100 µM (inactive) | > 100 µM (inactive) |  |  | > 100 µM (inactive) | 97.5 µM (inactive) | > 100 µM (inactive) | > 100 µM (inactive) | > 100 µM (inactive) | 97.7 µM (inactive) | > 100 µM (inactive) | > 100 µM (inactive) | > 100 µM (inactive) | > 100 µM (inactive) | > 100 µM | > 100 µM (inactive) | > 100 µM (inactive) | > 100 µM (inactive) | > 100 µM (inactive) | > 100 µM (inactive)
C(CCCCc1nnc(N2CCOCC2)o1)CCCc1nnc(N2CCOCC2)o1 | > 100 µM (inactive) | > 100 µM (inactive) | > 100 µM (inactive) | > 100 µM (inactive) | > 100 µM (inactive) | > 100 µM (inactive) | > 100 µM (inactive) |  | > 100 µM (inactive) | > 100 µM (inactive) |  | > 100 µM (inactive) | > 100 µM (inactive) | > 100 µM (inactive) | > 100 µM | > 100 µM (inactive) |  | > 100 µM (inactive) | > 100 µM (inactive) | > 100 µM (inactive)
COc1cc(C2SCC(=O)N2c2cccc(Cl)c2)cc(OC)c1OC (stereo not drawn) | > 100 µM (inactive) | > 100 µM (inactive) | 84.9 µM (inactive) | 46.8 µM (inactive) | > 100 µM (inactive) | 17.2 µM (inactive) | 37.2 µM (inactive) |  | 43.7 µM (inactive) | > 100 µM (inactive) |  | > 100 µM (inactive) | > 100 µM (inactive) | 27.7 µM (inactive) | 72.3 µM | 71.9 µM (inactive) | 45.7 µM (inactive) |  | > 100 µM (inactive) | > 100 µM (inactive)
CC1(C)C=C(/C=N/Nc2ccccc2)C(C#N)=C(O)C1(C#N)C#N | > 100 µM (inactive) | > 100 µM (inactive) | > 100 µM (inactive) | > 100 µM (inactive) | > 100 µM (inactive) | > 100 µM (inactive) | 57.7 µM (inactive) | > 100 µM (inactive) | 90.4 µM (inactive) | > 100 µM (inactive) |  | > 100 µM (inactive) |  | 68.4 µM (inactive) |  | > 100 µM (inactive) | 52.5 µM (inactive) | > 100 µM (inactive) | > 100 µM (inactive) | > 100 µM (inactive)
COC(=O)C(Cc1c[nH]c2ccccc12)NC(=O)C(Cc1c[nH]c2ccccc12)NC(=O)C(Cc1c[nH]c2ccccc12)NC(=O)C(Cc1c[nH]c2ccccc12)NC(=O)C(Cc1c[nH]c2ccccc12)NC(=O)C(Cc1c[nH]c2ccccc12)NC(=O)C(Cc1c[nH]c2ccccc12)NC(=O)OC(C)(C)C (stereo not drawn) (Boc-WWWWWWW-OMe; configuration not given here) | 31.9 µM (inactive) | > 100 µM (inactive) | 21.7 µM (inactive) | 59.4 µM (inactive) | > 100 µM (inactive) | 63.7 µM (inactive) | 40.6 µM (inactive) | 34.5 µM (inactive) |  |  | > 100 µM (inactive) | 43.6 µM (inactive) | 37.4 µM (inactive) | 92.7 µM (inactive) | > 100 µM |  | 46.7 µM (inactive) |  | 35.6 µM (inactive) | > 100 µM (inactive)
CC(C)(C)OC(=O)NC(Cc1ccc(OCc2ccccc2)cn1)C(N)=O (stereo not drawn) | > 100 µM (inactive) | > 100 µM (inactive) |  | 46.3 µM (inactive) | > 100 µM (inactive) | 68.5 µM (inactive) | > 10 µM (inactive) | > 100 µM (inactive) | > 100 µM (inactive) | > 100 µM (inactive) |  | > 100 µM (inactive) | > 100 µM (inactive) | > 100 µM (inactive) | 54.7 µM | 89.9 µM (inactive) | > 100 µM (inactive) | > 100 µM (inactive) | > 100 µM (inactive) | > 100 µM (inactive)
CN(C(=O)C1=CCC2(CC1)OCCO2)c1ccccc1I | > 100 µM (inactive) | > 100 µM (inactive) | > 100 µM (inactive) | > 100 µM (inactive) | > 100 µM (inactive) | > 100 µM (inactive) | > 100 µM (inactive) |  | > 100 µM (inactive) |  | > 100 µM (inactive) | > 100 µM (inactive) | > 100 µM (inactive) | > 100 µM (inactive) | > 100 µM | > 100 µM (inactive) | > 100 µM (inactive) |  | > 100 µM (inactive) | > 100 µM (inactive)
Cn1c(=O)oc2cc(C(=S)N3CCC(Cc4ccccc4)CC3)ccc21 |  | > 100 µM (inactive) | > 100 µM (inactive) | > 100 µM (inactive) | > 100 µM (inactive) | > 100 µM (inactive) | 48.1 µM (inactive) | > 100 µM (inactive) | > 100 µM (inactive) | > 100 µM (inactive) |  | > 100 µM (inactive) | 64.7 µM (inactive) | > 100 µM (inactive) | > 100 µM | > 100 µM (inactive) | 62.1 µM (inactive) | > 100 µM (inactive) | > 100 µM (inactive) | > 100 µM (inactive)
C[C@@H](Oc1ccc(Oc2cnc3ccc(Cl)cc3n2)cc1)C(=O)O [R(+)XK469] | 55.5 µM (inactive) | 87.9 µM (inactive) | > 100 µM (inactive) | 39 µM (inactive) |  | > 100 µM (inactive) | > 100 µM (inactive) | > 100 µM (inactive) | > 100 µM (inactive) | > 100 µM (inactive) | > 100 µM (inactive) | > 100 µM (inactive) | > 100 µM (inactive) | 97.3 µM (inactive) | > 100 µM | > 100 µM (inactive) |  | > 100 µM (inactive) | > 100 µM (inactive) | 85.3 µM (inactive)
